Laboratory results reported in US8022075B2, “Diagnostic and remedy for disease caused by amyloid aggregation and/or deposition” (Fujifilm Ri Pharma Co., Ltd., priority 2005, dated 2011).
Like-named read-outs stand apart in the source and are kept apart here.

What was measured:
[1] = In vitro metabolism rate by use of liver microsomes, mouse; assay type: in vitro ADME, Male CD1 mouse
Protocol: (§1) Liver microsomes (Pooled human Liver Microsomes, Male CD1 mouse, Male Wistar Rat), which is a commercial product of In Vitro Technologies, were employed.
(§2) Each of compound 23, compound 24, and [^125I]-IMPY was dissolved in Milli Q water, to thereby adjust the concentration to 11 μCi/mL (5 nmol/L).
(§3) To a mixture of 100 mM glucose 6-phosphate and […] NADPH solution, an equal volume of […] magnesium chloride was added. Glucose 6-phosphate dehydrogenase was employed at a final concentration of 10 unit/mL. These components were reconstituted upon use.
(§4) Method: To each of the glass test tubes, […] EDTA/0.33M potassium phosphate buffer (150 μL), Milli Q water (200 μL), 0.005 or 0.5 mg protein/mL microsome suspension (50 μL), and a test substance solution (50 μL) were added. The mixture was preliminarily incubated at 37° C. for two minutes. The above-prepared NADPH-generating system (50 μL) was added, to thereby initiate reaction. At an arbitrary point of time, an equal volume of acetonitrile was added, to thereby terminate the reaction. The reaction mixture (50 μL) was sampled into a glass tube for determining the metabolism amount, and saturated ascorbic acid ethanol solution (25 μL) was added thereto. The sample was developed by means of a reverse phase TLC (Whatman KC18F) with 80% methanol. The TLC was brought into contact with an imaging plate, and radioactivity was detected by means of BAS-1800 (product of Fuji Film Co., Ltd.). The metabolism rate was calculated through analysis by means of GraphPad Prism Ver. 4.00 (GraphPad Software, Inc.).

[2] = Distribution in rat body (radioactivity in the brain); assay type: in vivo, Wistar male rats; settings: caudal vein
Protocol: Wistar male rats (purchased from Japan SLC, Inc.) were conditioned for seven days, maintaining water and chow (commercial solid chow: F-2, product of Funabashi Farm) ad libitum, and the non-fasting rats were employed in the experiment (8-week-old at experiment).
Each of compound 23, compound 24, and [^125I]-IMPY was dissolved in a solution containing 40 mM ascorbic acid and 0.1% Tween80, to thereby adjust the concentration to 100 μCi/200 μL. Each sample was administered to each rat through the caudal vein under non-anesthetization. […] The brain was cut into the left and right parts, and each part was weighed. The right brain was placed in a vial, and radioactivity was measured by means of a gamma counter. The radioactivity relative to the administration amount was calculated. Specifically, radioactivity of the tissue and that divided by the tissue weight were calculated as % I.D. and % I.D./g-tissue weight, respectively.

[3] = In vitro metabolism rate by use of liver microsomes, rat; assay type: in vitro ADME, Male Wistar Rat
Protocol: as §1, §2, §3, §4

[4] = target: Whole protein of human Alzheimer lesion origin (temporal cortex) (Homo sapiens, UniProt P05067); assay: Calculation of binding affinity by use of Alzheimer brain; settings: Alzheimer brain homogenate
Chain of Whole protein of human Alzheimer lesion origin (temporal cortex) (P05067 672-713): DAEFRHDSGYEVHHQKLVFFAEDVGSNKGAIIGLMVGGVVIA
Protocol: Whole protein of human Alzheimer lesion origin (temporal cortex), a commercial product of Biochain (US), was employed.
An Alzheimer brain homogenate diluted with PBS was added to each test tube, to thereby initiate reaction.
4.00 (GraphPad Software, Inc.), to thereby calculate binding parameters (Kd, Bmax).

[5] = In vitro metabolism rate by use of liver microsomes, human; assay type: in vitro ADME
Protocol: as §1, §2, §3, §4

[6] = target: T1, amyloid β (1-40) aggregates formed in PBS and in MES (Homo sapiens, UniProt P05067); assay: Correlation of β sheet amount in aggregates to binding amount of compound 23; settings: mixtures of PBS aggregates and MES aggregates (FIG. 4)
T1 construct: amyloid β (1-40) peptide hydrochloric acid salt; host or cells: chemically synthesised peptide
T1 sequence (P05067 672-711 limits assumed): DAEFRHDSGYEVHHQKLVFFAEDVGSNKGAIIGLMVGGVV
Excerpt: In order to confirm that binding of compound 23 is promoted in accordance with the β-sheet structure amount, binding amount was compared among amyloid β aggregates having different β-sheet contents.
It has already reported by Wood et al. that amyloid β (1-40) aggregated in an acidic medium assumes large aggregates having a small β-sheet structure content, and that the structure is unchanged even in a neutral pH medium (Wood S. J., J. Mol. Biol. 256(5): 870-877). According to this report, synthetic amyloid β (1-40) aggregates were prepared in PBS in a manner similar to that of Test Example 2, and such aggregates were also prepared in MES (2-morpholinoethansulfonate) buffer in a similar manner.
These samples were further diluted with PBS to 40 μmol/L. Also a PBS aggregates sample and a MES aggregates sample were diluted with PBS to 40 μmol/L respectively.
The β-sheet content of aggregate mixture samples was determined through the thioflavin T method.
The binding amount of compound 23 to an aggregate mixture (aggregates formed in PBS and those formed in MES) was determined in a manner similar to that of Test Example 5 (binding to amyloid).

[7] = standard substances of liposolubility; values reported in the literature; cited from earlier work
[8] = target: T2, Amyloid β (1-40) peptide (Homo sapiens, UniProt P05067); assay: Inhibitory activity on formation of amyloid from amyloid β protein (thioflavin T method); assay type: biochemical; settings: amyloid β (1-40) 15 μmol/L, PBS(−), room temperature, one day; read-out: Aggregation inhibitory activity IC50 A β 1-40
T2 construct: amyloid β (1-40) peptide hydrochloric acid salt; host or cells: chemically synthesised peptide
T2 sequence (P05067 672-711 limits assumed): as above
Protocol: Amyloid β (1-40) peptide hydrochloric acid salt (product of PEPTIDE […], INC.) (15 μmol/L) and a test substance (1.6, 8, or 40 μmol/L) were incubated in PBS(−) at room temperature for one day. Thereafter, the amount of formed amyloid was measured through the thioflavin T method. […] As is clear from table 3, aggregation of amyloid β (1-40) can be prevented by the compound of the present invention.

[9] = target: T3, synthetic amyloid β (1-40) aggregates (Homo sapiens, UniProt P05067); assay: Inhibition of binding of compound 23 to amyloid β protein aggregates; set-up: amyloid β (1-40) peptide hydrochloric acid salt; host or cells: chemically synthesised peptide; settings: binding of 125I-labeled compound 23 to A β 1-40 aggregates, room temperature, three hours
T3 sequence (P05067 672-711 limits assumed): as above
Protocol: Synthetic A β peptides in a solution form undergo spontaneous aggregation in a test tube, to thereby form aggregates having the same β-sheet structure as that of amyloid aggregates present in a brain suffering from Alzheimer's disease (hereinafter, such a brain is referred to as an “Alzheimer brain”).
After ultrasonication, the mixture was gently stirred at 37° C. for four days, to thereby produce synthetic amyloid β (1-40) aggregates.
Binding test was performed in the following manner. Firstly, PBS (500 μL) and 0.2% BSA/PBS solution (100 μL) were added to test tubes. […] Reaction was initiated by adding a synthetic amyloid β (1-40) aggregates solution (concentration: 500 nmol/L, adjusted by PBS) (200 μL) to each test tube.
These samples were incubated at room temperature for three hours, and each reaction mixture was filtered by means of a cell harvester (M-24R, product of Brandel) by use of a Whatman GF/B filter (product of Whatman). The filter was washed thrice with ice-cooled PBS solution (about 2 mL) containing 0.1-mmol/L ascorbic acid.
Activity values were calculated by means of a GraphPad Prism Ver.

[10] = target: T2, Amyloid β (1-40) peptide; assay: Binding of compound 24 to amyloid β (1-40) aggregated in PBS or dissolved in purified water; settings: for Specific binding radioactivity: amyloid β 50 nmol/L
Protocol: Separately, amyloid β (1-40) peptide HCl salt was dissolved in purified water, to thereby prepare a 100-μmol/L amyloid β (1-40) solution. A CD spectrum of each sample solution (twice diluted) was measured at room temperature (about 25° C.) in a wavelength range of 190 to 250 nm. PBS or purified water was measured as a blank. After measurement, a blank value was subtracted from a CD value of each sample, to thereby correct the base line. From the thus-corrected CD values, secondary structure analysis was performed by means of SELCON3.
Subsequently, binding ability of the compound of the invention to amyloid β (1-40) peptide dissolved in purified water or aggregated in PBS was determined in a manner similar to that employed in Test Example 3. However, a ^125I-labeled compound 24 was employed, and no rat bran homogenate was included. The employed amyloid β concentration was 50 nmol/L at reaction.

[11] = target: T3, synthetic amyloid β (1-40) aggregates; settings: for Bonding amount against amyloid β protein aggregate concentration: presence and absence of normal rat brain homogenate
Protocol: A brain tissue was removed from a normal rat, and a 5-fold amount of PBS was added to the tissue (wet state). A homogenate was produced from the mixture by use of a homogenizer. To test tubes, PBS (500 μL, in the presence of homogenate or 600 μL, in the absence of homogenate) was added. A rat brain homogenate (100 μL) was added under the presence condition of homogenate. […] Each (200 μL) of the Aβ aggregates solutions of twice-diluted series was added to each test tube, whereby reaction was initiated.
By subtracting a non-specific binding amount from the total binding amount and dividing the difference by the non-specific binding amount, an SN (Signal/Noise) ratio was calculated. The relationship between the SN ratio and amyloid β protein aggregate concentration was investigated (FIG. 2).

[12] = animal PET scanner; cited from earlier work
[13] = human, in vivo; cited from earlier work
[14] = read-out: Inhibitory activity (n = 3) IC50 Mean ± S.D.

With [125I]c1ccc2nc(-c3ccc(-c4cnco4)cc3)cn2c1 [Example 23, [^125I]5-[4-(6-Iodoimidazo[1,2-a]pyridin-2-yl)phenyl]-1,3-oxazole] the “Rate of metabolism by liver microsomes” value [1] was 0.480 ± 0.139 pmol/min/mg protein, the “Radioactivity in the rat brain Mean ± SD” value ([2]; 2 min after administration) was 1.268 ± 0.166 % I.D./g and the “Radioactivity in the rat brain Mean ± SD” value ([2]; 5 min after administration) was 1.124 ± 0.032 % I.D./g. For the same molecule, the “Radioactivity in the rat brain Mean ± SD” value ([2]; 15 min after administration) was 0.584 ± 0.077 % I.D./g, the “Radioactivity in the rat brain Mean ± SD” value ([2]; 30 min after administration) was 0.273 ± 0.015 % I.D./g and the “Radioactivity in the rat brain Mean ± SD” value ([2]; 60 min after administration) was 0.139 ± 0.006 % I.D./g. The “Radioactivity in the rat brain Mean ± SD” value ([2]; 120 min after administration) was 0.083 ± 0.002 % I.D./g, the “Rate of metabolism by liver microsomes” value [3] was 0.632 ± 0.420 pmol/min/mg protein and the Bmax [4] was 1.66 pmol/mg protein. For the same molecule, the “Rate of metabolism by liver microsomes” value [5] was 0.944 ± 0.265 pmol/min/mg protein and the “Specific binding amount against β-sheet content of aggregate mixture” value [6] was “promoted in accordance with an increase in β-sheet content”.

For Clc1cccc(Cl)c1N=C1NCCN1 [Clonidine], the LogD7.4 [7] is listed as 0.62.

In the case of Oc1ncnc2[nH]ncc12 [Allopurinol], the LogD7.4 [7] is given as −0.44.

For CC(=O)Nc1ccc(O)cc1 [Acetaminophen], the LogD7.4 [7] is listed as 0.51.

In the case of “5-[4-(6-Iodoimidazo[1,2-a]pyridin-2-yl)phenyl]-1,3-oxazole [Example 1]”, the IC50 [8] is reported as 29400 nM and the IC50 [9, 14] is reported as 1.23 ± 0.0842 nM.

Work on Nc1c(/N=N/c2ccc(-c3ccc(/N=N/c4cc(S(=O)(=O)O)c5ccccc5c4N)cc3)cc2)cc(S(=O)(=O)O)c2ccccc12 [Congo Red, reference compound] yielded an IC50 [9] greater than 5000 nM.

Work on Ic1ccc2nc(-c3ccc(-c4cc[nH]n4)cc3)cn2c1 [Example 3, 6-Iodo-2-[4-(1H-3-pyrazolyl)phenyl]imidazo[1,2-a]pyridine] yielded an IC50 [8] of 22300 nM and an IC50 [9] of 9.72 ± 1.44 nM.

For CN/C(=N/CCSCc1nc[nH]c1C)NC#N [Cimetidine], the LogD7.4 [7] is listed as 0.35.

With “[^125I]6-Iodo-2-[4-(1H-3-pyrazolyl)phenyl]imidazo[1,2-a]pyridine [Example 24]” the Specific binding radioactivity ([10]; Solution of amyloid β (1-40) dissolved in purified water) was 6300.3 cpm, the Specific binding radioactivity ([10]; Suspension of amyloid β (1-40) aggregated in PBS) was 125504.4 cpm and the “Specific binding to aggregates (suspension) relative to dissolved amyloid β (1-40) (solution)” value ([10]; ratio suspension in PBS / solution in purified water) was “about 20 times”. The “Rate of metabolism by liver microsomes” value [1] was 0.229 ± 0.061 pmol/min/mg protein, the “Radioactivity in the rat brain Mean ± SD” value ([2]; 2 min after administration) was 0.760 ± 0.036 % I.D./g and the “Radioactivity in the rat brain Mean ± SD” value ([2]; 5 min after administration) was 0.656 ± 0.026 % I.D./g. The “Radioactivity in the rat brain Mean ± SD” value ([2]; 15 min after administration) was 0.373 ± 0.047 % I.D./g, the “Radioactivity in the rat brain Mean ± SD” value ([2]; 30 min after administration) was 0.176 ± 0.009 % I.D./g and the “Radioactivity in the rat brain Mean ± SD” value ([2]; 60 min after administration) was 0.053 ± 0.003 % I.D./g. The “Radioactivity in the rat brain Mean ± SD” value ([2]; 120 min after administration) was 0.015 ± 0.002 % I.D./g, the “Rate of metabolism by liver microsomes” value [3] was 0.193 ± 0.058 pmol/min/mg protein and the Bmax [4] was 1.59 pmol/mg protein. The Kd ([4]; 125I-labeled test compound 0.5 nmol/L) was 4.05 nM and the “Rate of metabolism by liver microsomes” value [5] was 0.140 ± 0.057 pmol/min/mg protein.

In the case of CN(C)c1ccc(-c2cn3cc([123I])ccc3n2)cc1 [^123I-IMPY, [^123I]6-iodo-2-(4′-dimethylamino-)phenyl-imidazo[1,2-a]pyridine, reference compound], the “Bonding amount against amyloid β protein aggregate concentration” value [11] is reported as “increase in bonding amount in response to the amyloid β protein aggregate concentration”.

For C[C@]12CC[C@H]3[C@@H](CCC4=CC(=O)CC[C@@]43C)[C@@H]1CC[C@@H]2O [Teststeron], the LogD7.4 [7] is listed as 3.29.

In the case of c1ccc(-c2ccc(C(c3ccccc3)n3ccnc3)cc2)cc1 (stereo not drawn) [Bifonazole], the LogD7.4 [7] is listed as 4.77.

For [11CH3]Nc1ccc(-c2nc3ccc(O)cc3s2)cc1 [^11C-PIB], the “Retention time, PS1/APP mice against normal mice” value [12] is given as “no difference is observed in retention time” and the “Difference in retention between AD patient groups” value [13] is given as “at most about two-fold”.

For [123I]c1ccc2nc(-c3ccc(-c4cc[nH]n4)cc3)cn2c1 [^123I-labeled product of compound 3, [^123I]6-Iodo-2-[4-(1H-3-pyrazolyl)phenyl]imidazo[1,2-a]pyridine], the “SN (Signal/Noise) ratio” value ([11]; compared with 123I-IMPY, presence and absence of normal rat brain homogenate (FIG. 2)) was “higher SN ratio” and the “Bonding amount against amyloid β protein aggregate concentration” value [11] was “increase in bonding amount in response to the amyloid β protein aggregate concentration”.

In the case of CC(=C(C#N)C#N)c1ccc2cc(N(C)CCF)ccc2c1 [FDDNP, reference compound], the IC50 [9, 14] is reported as 1050 ± 48.8 nM.
